Results reported in patent US5804601A, “Aromatic hydroxamic acid compounds, their production and use” (Takeda Chemical Industries, Ltd., priority 1995, dated 1998).

Tests used:
[1] = tested on: rat mixed cerebral cell culture; experiment: Neutralizing effect on LPS-induced cytotoxicity in a rat mixed cerebral cell culture system (LIC assay), MTT method; assay type: cell-based; conditions: concentration giving a recovery rate of 50%, usually 4-5 days incubation, read-out: ED50 (the source's name)
Experimental: Neutralizing effect on lipopolysaccharide (LPS)--induced cytotoxicity in a rat mixed cerebral cell culture system (LIC assay)
LPS, a substance known to activate glial cells (astrocytes, microglia), was added to a rat mixed cerebral cell culture system and the compounds which would neutralize the cytotoxicity induced by LPS were screened by the following method.
(1) Neonatal rat mixed cerebral cell culture
From neonatal Crj:CD (SD) rats (1-3 days old, Charles-River Japan, Ltd.), the brains were isolated and placed in ice-cold D-MEM/10% FCS (Dulbecco's cell culture minimal essential medium supplemented with 10% of fetal calf serum, 100 units/ml of penicillin and 100 μg/ml of streptomycin). Then, mixed cerebral cell cultures were carried out in the following steps.
1. The cerebrums were separated from the enucleated brains and the meninges was removed under the stereoscopic microscope.
2. The cerebrums were placed in a nylon-mesh (100-200 μm) bag to filter with the aid of a rubber policeman.
3. Using ice-cold D-MEM/10% FCS, the cells were washed 3 times (1000 rpm, 8 min.). Then, this cell suspension was filtered through a cell strainer (40 μm mesh, Falcon 2340) and the number of viable cells was counted by the trypan blue method.
4. The cells, were seeded in wells of a 96-well microtiter plate (Nunc) at a cell density of 1×10^5 cells/100 μl/well, and started a cell culture at 37° C.
5. One week later, 100 μl/well of D-MEM/10% FCS was added.
6. The plate was further incubated for about 1-2 weeks and the neutralizing activity of the test compound was evaluated by the following method.
(2) Evaluation of neutralizing activity in LPS-induced cytotoxicity
1. Following the rat mixed cerebral cell culture described in (1) (after 2-3 weeks of incubation), the medium was discarded from the respective wells of the 96-well microtiter plate, and 50 μl/well of fresh D-MEM/2% FCS was added.
2. A test sample and LPS (Difco, E. coli 011: B4, Bacto) of a suitable concentration, 25 μl each per well, were respectively added. D-MEM/2% FCS was used as the medium.
As the test sample, each of the compounds shown in Table 32 was dissolved in DMSO at a concentration of 10 ^-2 M and the solution was diluted with D-MEM/2% FCS and submitted for assay.
3. After a suitable period (usually 4-5 days) of incubation, the degree of cytotoxic effect was assessed by the microscopic observation, and MTT method.
(3) MTT [3-(4,5-dimethylthiazol-2-yl)-2,5-diphenyltetra zolium bromide] method
Ten μl of MTT solution (5 mg/ml, Sigma) dissolved in phosphate-buffered saline was added to each well. After 4-6 hours of incubation (37° C., under 10% CO2), 100 μl/well of 0.01N-hydrochloric acid containing 10% SDS was added, whereby the formed formazan was dissolved. After complete dissolution, the absorbance (540-590 nm) was measured for each well.
The ED50 values were determined by calculating the recovery rates by means of the following equation and plotting the concentrations of compounds giving a recovery rate of 50% on graph paper.
Recovery rate (%)=(C-B)×100/(A-B)
[A: the absorbance at 550 nm of the control well to which only the medium had been added
B: the absorbance at 550 nm of the well to which LPS had been added
C: the absorbance at 550 nm of the well to which both LPS and the test compound had been added]

[2] = tested on: apomorphine-induced circling in rats pretreated with LPS infused into the unilateral striatum; experiment: Inhibitory effect on the apomorphine-induced circling in rats pretreated with LPS infused into the unilateral striatum; assay type: in vivo, rat; conditions: for Number of ipsilateral circlings (mean ± S.E.): 3 times, LPS 5 μg, apomorphine 1 mg/kg s.c., 30-minute period, n=4
Experimental: Inhibitory effect on the apomorphine-induced circling in rats pretreated with LPS infused into the unilateral striatum Male Wistar rats (8-9 weeks old) weighing 250-280 g at the operation for LPS infusion were submitted to the experiment. Throughout the experimental period, the animals were group-fed in a vivarium controlled at 24±1° C. and 55±1% R.H., with a light-dark cycle of 12 hr (7:00-19:00 ON) and free access to food (Clea Japan, Inc., CE-2 pellets) and water (tap water). Under pentobarbital (50 mg/kg, i.p.) anesthesia, the rat's head was immobilized in David Kopf's brain stereotaxic apparatus for small animal use and with reference to Pellegrino & Cushman's brain atlas, a 30 G stainless steel needle was indwelled in the unilateral striate body (A8.2, L2.8, H4.3). The infusion amount of LPS was set at 5 μg. LPS was dissolved in 1 μl of phosphate-buffered saline (PBS, pH 7.2) and the solution was infused gradually at a speed of 0.2 μl/min. The infusion needle was kept in position till 3 minutes following infusion and withdrawn only after sufficient diffusion of the drug solution had taken place. After 7-8 days postoperatively, 1 mg/kg of apomorphine was administered subcutaneously and the number of induced circling behavior during a 30-minute period immediately following administration were determined with an automatic counter. Compound A was suspended in 5% aqueous gum arabic solution and the suspension was administered either orally or intraperitoneally at a dose rate of 0.2 ml per 100 g rat body weight. This administration was carried out 3 times, namely 30 minutes before infusion of 5 μg LPS and 3 and 24 hours after the infusion. As a control, physiological saline solution alone was administered intraperitoneally.

[3] = tested on: TNFα; experiment: LPS-induced TNFα production in the rat mixed cerebral cell culture system (ELISA); assay type: cell-based; conditions: LPS 10 μg/ml, 24 hours
Experimental: Rat mixed cerebral cell cultures on day 15 after starting cell cultures were used. After removal of the medium, LPS (E. coli 011: B4, Bacto) (Difco Laboratories), 10 μg/ml, and Compound A, 10^-6 or 10^-7 M, were simultaneously added and the final volume was adjusted to 100 μl. After 24 hours of incubation at 37° C., the culture supernatant was collected as a sample for ELISA. The assay for determining TNFα amount was made using Mouse TNFα ELISA Kit (Genzyme) in accordance with its assay protocol.

[4] = tested on: NO (nitric oxide) production; experiment: Inhibitory effect on LSP-induced NO (nitric oxide) production in a rat mixed cerebral cell culture system; assay type: cell-based; conditions: 120 h, LSP 5 μg/ml, 5 days, combined NO3^- and NO2^- in culture supernatant, read-out: inhibition concentration (IC50) against LSP-induced NO production
Experimental: Inhibitory effect on LSP-induced NO (nitric oxide) production in a rat mixed cerebral cell culture system
(1) Rat mixed cerebral cell culture
Rat mixed cerebral cell cultures were prepared by the procedure described in Experimental Example 1.
1. Twenty (20) days after initiation of rat mixed cerebral cell culture, the medium was removed from each well of the 96-well microtiter plate and, instead, 125 μl/well of D-MEM/2% FCS containing 5 μg/ml (final concentration) of LSP (Difco, E. coli 011: B4, Bacto) and a suitable dilution of the test compound was added. As the test sample, a stock DMSO solution of 10^-2 M concentration was prepared and diluted with D-MEM/2% FCS.
2. After a further 5 days of cell culture, the combined amount of NO3^- and NO2^- in the culture supernatant was determined with the NO3^- NO2^- Assay Kit (Cayman Chemical, Catalog No. 780001, U.S.A.). The assays were carried out in accordance with the accompanying protocol.
The IC50 values were determined from a plot of the concentrations of the test compound which caused a 50% decrease in the combined amount of […] and NO3^- in the culture supernatant as compared with the well to which LSP alone had been added in a final concentration of 5 μg/ml without addition of compound A.

SMILES	EC50 [1] [nM]	also measured
CC1=C(C)C(=O)C(C(CCCCCC(=O)NOC(=O)C(C)(C)C)c2ccccc2)=C(C)C1=O (centres unmarked) [Compound 7-17, O-pivaloyl-7-(3,5,6-trimethylbenzoquinon-2-yl)-7-phenylheptanohydroxamic acid]	200	
COc1ccc(C(CCCCC(=O)NO)C2=C(C)C(=O)c3ccccc3C2=O)cc1 (centres unmarked) [Compound A, 6-(3-Methyl-1,4-naphthoquinon-2-yl)-6-(4-methoxyphenyl)hexanohydroxamic acid]	20	Number of ipsilateral circlings (mean ± S.E.) ([2]; i.p. (3 mg/kg)): 44 ± 15; Number of ipsilateral circlings (mean ± S.E.) ([2]; p.o. (30 mg/kg)): 65 ± 21; LPS-induced injury of the unilateral striatum (in words) ([2]; rat, in vivo): significantly attenuated; TNFα ([3]; Compound A 10^-6 M): 230 pg/mL; TNFα ([3]; Compound A 10^-7 M): 790 pg/mL; IC50 [4]: 80 nM
CC1=C(C(CCCCC(=O)NO)c2ccc(F)cc2)C(=O)c2ccccc2C1=O (centres unmarked) [Compound B, 6-(4-Fluorophenyl)-6-(3-methyl-1,4-naphtho-quinon-2-yl)hexanohydroxamic acid]	500	
CC1=C(C)C(=O)C(C(CCCCCC(=O)NO)c2ccccc2)=C(C)C1=O (centres unmarked) [Compound C, 7-(3,5,6-Trimethyl-1,4-benzoquinon-2-yl)-7-phenylheptanohydroxamic acid]	300	
CC1=C(C)C(=O)C(C(CCCCCC(=O)NO)c2ccc(C)cc2)=C(C)C1=O (centres unmarked) [Compound D, 7-(3,5,6-Trimethyl-1,4-benzoquinon-2-yl)-7-(4-methylphenyl)heptanohydroxamic acid]	100	
CC1=C(C)C(=O)C(C(CCCCCC(=O)NO)c2ccc(F)cc2)=C(C)C1=O (centres unmarked) [Compound E, 7-(4-Fluorophenyl)-7-(3,5,6-trimethyl-1,4-benzoquinon-2-yl)heptanohydroxamic acid]	600	
O=C(CCCCCC(c1ccccc1)c1ccc2ccccc2c1O)NO (centres unmarked) [Reference Example 46-1, 7-(1-Hydroxy-2-naphthyl)-7-phenylheptanohydroxamic acid]	50	
O=C(CCCCCc1ccc2ccccc2c1O)NO [Reference Example 46-2, 6-(1-Hydroxy-2-naphthyl)hexanohydroxamic acid]	500	
